Where a name gives a salt, the structure may show the parent alone.
Legend:
opioid receptors = test: Stimulation of [35S]GTPγS binding (agonist/antagonist activity); assay type: biochemical, guinea pig

`C=CCN1CC[C@H](N(c2ccccc2)c2ccc(C(=O)N(CC)CC)cc2)[C@H](C)C1` (racemic) (as salt: hydrochloride) showed a melting point of 221 to 225.5 °C.

In the case of `C=CCN1CC[C@@H](N(c2ccccc2)c2ccc(C(=O)N(CC)CC)cc2)[C@H](C)C1` (racemic) (as salt: hydrochloride), the melting point was 177 to 178 °C.

In the case of `CN1CCC2(c3cccc(O)c3)Cc3ccccc3CC2(C)C1` (racemic) [Compound 7, (±)-1,2,3,4,4a,5,10,10a-octahydro-4a-(3-hydroxyphenyl)-2,10a-dimethylbenzo-[g]isoquinoline], the “stimulation of [35S]GTPγS binding (agonist activity)” value (opioid receptors; concentrations as high as 1 μM) was “neither the N-methyl derivative 7 nor the N-phenethyl derivative 8 stimulated”.

For `CC1C2CCCC1(c1cccc(O)c1)CCN2CCc1ccccc1` (stereo not drawn) [Compound 5c, 5-(3-Hydroxyphenyl)-9β-methyl-2-(2′-phenylethyl)-2-azabicyclo[3.3.1]nonane], the agonist/antagonist character (opioid receptors; [35S]GTPγS functional assay) was “pure antagonists at the μ, δ, and κ opioid receptors” and the “stimulation of GTP binding (agonist activity)” value (opioid receptors; up to concentrations of 10 μM) was “neither 5b nor 5c stimulated GTP binding”.
